Assay [1] concerns SCN5A heterozygous mutant mice (KI) with galactose aging and adriamycin-induced DCM. Put plainly: Evaluation on mouse cardiac function by echocardiography in aging and adriamycin-induced DCM model. Particulars: KI+Wnt-C59 group vs KI group, intragastric 1 mg/kg.d for 2 weeks. The format is in vivo. As to the method:
(§1) SPF-grade male C57BL/6 mice (purchased from Shanghai Jiesijie Experimental Animal Co., Ltd.) and SCN5A heterozygous mutant mice (aging 8 to 10 weeks and weighing 20 g to 25 g) were selected and intraperitoneally injected with d-galactose (500 mg/kg. d, sigma G5388) continuously for 8 weeks to construct aging models. Then the mice were intraperitoneally injected with adriamycin (4 intraperitoneal injections, total 10 mg/kg, Sangon A603456) to construct DCM models. After the models were constructed, cardiomyocytes were isolated from mice in each of the KI group and the WT group. The experimental scheme was approved by the Animal Management and Ethics Committee of Fudan University.
After the ultrasonic test, there were 3 groups for study: WT group, KI group, and KI+Wnt-C59 group. Adriamycin was used for molding, and at the same time, the KI+Wnt-C59 group was intragastrically administered with Wnt-C59 (1 mg/kg.d, MCE HY-15659) every day, and the WT and KI groups were intragastrically administered with an equal volume of sterile normal saline as a control. […] The body weight was measured and recorded for mice in each group every day.
The echocardiogram was measured 2 weeks after the administration, with a probe frequency of 30 MHz. Specifically, the mice were anesthetized with isoflurane, and an M-mode image was recorded when a heart rate of the mice was maintained at 450 to 500 beats/min. […]

The test system of assay [2] is 46 types of tumor cells. Particulars: cited from earlier work.
Assay [3] concerns SCN5A heterozygous mutant mice (KI) with galactose aging and adriamycin-induced DCM. The experiment in a line: Heart size comparison after 2 weeks of drug intervention. Type of assay: in vivo. The conditions noted are these: KI+Wnt-C59 group vs KI group; intragastric 1 mg/kg.d for 2 weeks. As for the experimental part: as §1
After the ultrasonic test, there were 3 groups for study: WT group, KI group, and KI+Wnt-C59 group. Adriamycin was used for molding, and at the same time, the KI+Wnt-C59 group was intragastrically administered with Wnt-C59 (1 mg/kg.d, MCE HY-15659) every day, and the WT and KI groups were intragastrically administered with an equal volume of sterile normal saline as a control. Mice in each group received normal diet and water, and the administration was conducted continuously for 2 weeks. The body weight was measured and recorded for mice in each group every day.
After 2 weeks of drug intervention, the mice were sacrificed and hearts thereof were collected for heart size comparison among the 3 groups.

As for `Cc1cc(-c2ccc(CC(=O)Nc3ccc(-c4cccnc4)cc3)cc2)ccn1` [Wnt-C59], the “cardiac function (left ventricular ejection fraction, LVEF)” value in assay [1] is reported as “significantly improved”. Besides, in assay [2], the “proliferation of tumor cells” value is “significantly inhibit”. The heart size entry in assay [3] is listed as “significantly smaller”.

Source of the values: patent US11779575B2, “Use of Wnt inhibitor Wnt-C59 in preparation of drug for treating SCN5A mutation-induced dilated cardiomyopathy” (ZHONGSHAN HOSPITAL, FUDAN UNIVERSITY, priority 2020, dated 2023).
